A melting point compilation (Tetko et al.; mined from patent text by program, amines drawn as free bases though some values may be those of a salt)

For CC(C)C(=O)n1cc(-c2ccc(Oc3ccccc3)cc2)c2c(N)ncnc21, the melting point was 160 to 161 °C. With O=CNc1cnc2ccccc2c1Cl the melting point was 175 to 177 °C. COC(=O)C1N2C(=O)C(NC(=O)COc3ccccc3)C2SCC1(C)Nc1ccccc1 (stereo not drawn) gave a melting point of 129 to 130 °C. COC(=O)[C@@H]1C[C@H](C(=O)OC(C)(C)C)N(C(=O)CNC(=O)OC(C)(C)C)[C@@H]1c1ccccc1 (racemic) gave a melting point of 137 °C. Molecule COc1ccc2c(c1)c(=O)c(CSC)cn2C has a melting point of 122 to 123 °C. With Cc1cc(=O)c(C(=O)OC2CCCCC2)nn1-c1ccc(Cl)cc1 the melting point was 160 to 162 °C. CCOC(=O)CCNC(=O)c1cn2nc(Cl)ccc2n1 showed a melting point of 132 to 134 °C. With CC(C)OCc1cc2ccccc2oc1=Nc1ccccc1 the melting point was 107 to 108 °C. COc1ccc(-c2nc(C(OC)(C(F)(F)F)C(F)(F)F)[nH]c2-c2ccc(OC)cc2)cc1 showed a melting point of 129 to 131 °C. With Cc1c[nH]c2c(C=O)cccc12 the melting point was 77 to 79 °C. Work on CCCCc1ccc(C(=O)NCCC(C)(C)C)cc1 yielded a melting point of 70 to 71 °C. Work on CCOC(=O)Oc1ccc(S(=O)(=O)N2c3ccc(Cl)cc3-n3cccc3C2CC)cc1 (stereo not drawn) yielded a melting point of 117 to 119 °C. COc1cc2cc(COC(C)=O)c(COC(C)=O)c(C)c2cc1OC gave a melting point of 130 to 131 °C. For CCCN1CC(c2ccc(S(C)(=O)=O)cc2)=C(c2cccc(C)c2)C1=O, the melting point was 120 to 122 °C. Molecule Cc1ccc(Nc2ccc(OC(F)(F)F)cc2)cc1 has a melting point of 43.7 °C. Work on Sc1nc2ncccc2[nH]1 yielded a melting point of over 250 °C. For COc1ccc(C2=NN(c3cccc(C(=O)O)c3)C(=O)C(C)(C)C2)cc1OC, the melting point was 165 to 167 °C. Molecule CC(C)(CF)C(=O)C(Oc1cccc(F)n1)n1cncn1 (stereo not drawn) has a melting point of 116 °C. For COc1cc2c(cc1OC)N(C(=O)c1ccc(-c3ccccc3C(F)(F)F)c(C)c1)Cc1ccc(C(=O)N3CCC(=O)CC3)n1C2, the melting point was 132 to 134 °C. Work on O=C(Nc1ccc(-n2nc(C(F)(F)F)cc2C(F)(F)F)cc1)c1cccnc1 yielded a melting point of 185 to 188 °C. CCOC(=O)CNC(=O)N(O)C1CC(c2ccc(F)cc2)C1 (stereo not drawn) gave a melting point of 130 to 132 °C. Molecule COC(=O)C1=C(C)NC(=S)N(C(=O)Cc2ccccc2)C1c1cccc([N+](=O)[O-])c1 (stereo not drawn) has a melting point of 155 to 156 °C. In the case of CC(C)(C)OC(=O)Nc1cc(C(F)(F)F)ccc1-c1cc(Oc2ccc3cccnc3c2)ncn1, the melting point is reported as 159 to 162 °C. With CON=C(N)C1=Nc2ccc(Cl)cc2C(c2ccccc2F)=NC1 the melting point was 120 to 124 °C. Molecule N#Cc1cc2c3c(cccc3c1N1CCCC1)C(=O)N(O)C2=O has a melting point of 247 to 248 °C. Work on CC(=O)C1CCC2C3CCC4CC(O)CCC4(C)C3C(O)CC12C (stereo not drawn) yielded a melting point of 152 to 154 °C. With CCN(CC)C(C)(C)CNC1(c2ccccc2Cl)C(=O)Nc2ccc(Cl)cc21 (stereo not drawn) the melting point was 174 °C. Cc1cc(Cn2nc(-c3ccccc3)oc2=O)cc(C)c1O gave a melting point of 135 °C. COc1ccc(-c2csc(NC(=O)c3cc4ccccc4cn3)n2)cc1OC gave a melting point of 228 to 230 °C. In the case of CNS(=O)(=O)c1ccc(F)cc1, the melting point is reported as 67 to 70 °C. Work on Cc1cc(Oc2ncc(C(F)(F)F)cc2Cl)nn1C(N)=O yielded a melting point of 101 to 104 °C. Work on CC(C)n1cnc2c(Cl)nc(I)nc21 yielded a melting point of 104 °C. CCCc1nn(-c2ccc(C(F)(F)F)cn2)cc1COc1ccc(CCC(=O)O)c(OC)c1 showed a melting point of 153 to 154 °C. Molecule CCCCOc1ccc([N+](=O)[O-])c(C(=O)O)c1 has a melting point of 82 to 84 °C. CC(C)NC1=NS(=O)(=O)c2cc(Cl)sc2N1 showed a melting point of 272 to 274 °C. With CC1CCCc2cc([N+](=O)[O-])cnc21 (stereo not drawn) the melting point was 61 to 63 °C. Molecule CCOC(=O)N1CCC(C#N)(NC(=O)C(CC2CCCCC2)NC(=O)N2CCOCC2)CC1 (stereo not drawn) has a melting point of 140 to 143 °C. Molecule COC(=O)C[C@H]1C[C@H](C(=O)O)Nc2cc(Cl)cc(Cl)c21 (relative stereo) has a melting point of 181 to 182 °C. For Cc1ccc2c(c1)c(=O)oc(=O)n2Cc1ccc(F)cc1, the melting point was 153 °C. CCCCCCC(C(C)O)n1c(C)nc(C(N)=O)c1N (stereo not drawn) gave a melting point of 142 to 144 °C. COC(=O)C(CC(=O)c1cc(Cl)c(C)c(Cl)c1)OC (stereo not drawn) showed a melting point of 75 to 78 °C. Work on O=C(O)c1sc(C(c2ccc(Cl)cc2)c2c(Cl)cc(-n3ncc(=O)[nH]c3=O)cc2Cl)nc1-c1ccccc1 (stereo not drawn) yielded a melting point of 206 °C. Nc1ccc(Nc2c(NCc3ccccc3)cc(C(=O)O)cc2S(N)(=O)=O)cc1 showed a melting point of 244 °C. Molecule O=S(=O)(/C=C/c1ccccc1)CS(=O)(=O)/C=C/c1ccccc1 has a melting point of 128 to 130 °C. In the case of CCNc1nc(C)c(-c2ccnc(Nc3ccc4c(c3)OCO4)n2)s1, the melting point is reported as 194 to 195 °C. Work on COc1cc(CN2CCc3c(sc(N)c3C(=O)c3ccc4ccccc4c3)C2)cc(OC)c1OC yielded a melting point of 127 to 129 °C. In the case of COc1cccc2c1C=C(C(=O)O)C(C(F)(F)F)O2 (stereo not drawn), the melting point is reported as 204 to 207 °C. In the case of CS(=O)(=O)Nc1ccccc1C(=O)C1CCCCC1, the melting point is reported as 119 to 120 °C. In the case of NC(=O)N1c2ccccc2C=C(Cl)c2ccccc21, the melting point is reported as 183 to 185 °C. CC(=O)C1CC2=C(CO1)C(=O)c1ccc(O)cc1C2=O (stereo not drawn) showed a melting point of 169 to 170 °C. CCOC(=O)C1C(=O)NC(=O)C(CCN(C)C)(c2cccc(OC)c2)C1CC (stereo not drawn) showed a melting point of 160 to 162 °C. Work on Fc1cccc(Nc2nc(OCC3CCCCC3)c3[nH]cnc3n2)c1 yielded a melting point of 224 to 227 °C. Work on CC(=O)c1nc(-c2ccc(Cl)nc2)[nH]c1C yielded a melting point of 239 to 240 °C. Molecule CN(N)c1cc(N)nc(N)n1 has a melting point of 214 to 217 °C. Work on CC(c1cccnc1)N(c1ccc(F)cc1F)S(C)(=O)=O (stereo not drawn) yielded a melting point of 76 to 78 °C. O=Cc1ccc(F)cc1-c1noc2ccc(F)cc12 showed a melting point of 165 to 166 °C. O=C(CN1CCN(C(c2ccccc2)c2ccccc2)CC1)c1ccc(OCc2ccccc2)cc1 showed a melting point of 151 °C. CCOP(=O)(OCC)C(CCC(C(N)=O)P(=O)(OCC)OCC)C(N)=O (stereo not drawn) gave a melting point of 232 to 234 °C. For O=[N+]([O-])c1ccc2c(c1)CC(O)c1ccccc1S2 (stereo not drawn), the melting point was 144 to 146 °C. For CCCCC(CC)Cn1c2cc(Br)ccc2c2ccc(Br)cc21 (stereo not drawn), the melting point was 95 to 97 °C. Molecule CC(C)N(Cc1nc(-c2ncn3c2CN(C)C(=O)c2ccccc2-3)no1)C(C)C has a melting point of 117 to 119 °C. Molecule CCOC(=O)c1c(C)n(C(=O)c2ccccc2)c2ccc(Oc3nc(OC)cc(OC)n3)c(C(=O)OCc3ccccc3)c12 has a melting point of 128 to 132 °C. With Nc1c(I)c(C(F)(F)F)nn1-c1c(Cl)cc(C(F)(F)F)cc1Cl the melting point was 126 °C. For COc1ccnc(C(=O)N[C@H]2COC[C@H](OCc3ccccc3)[C@@H](OCc3ccccc3)[C@H](C)OC2=O)c1O, the melting point was 144 to 146 °C. In the case of COc1cc2nc(C)c(CO)nc2cc1OC, the melting point is reported as 176 to 177 °C. With O=C(O)CC1CCc2c(c3ccccc3n2Cc2ccccc2)C1 (stereo not drawn) the melting point was 156 to 158 °C. Work on CSc1nc(C)c(CCCl)c(=O)n1C yielded a melting point of 135 to 137 °C. Work on CC(C)(C)c1cc(=O)n(-c2c(Cl)cc(C(F)(F)F)cc2Cl)[nH]1 yielded a melting point of 175 °C. For CCN(CC)CCOc1ccc(Nc2ncc3c(n2)N(c2cccc(CCN)c2)C(=O)N(c2ccc(Cl)cc2Cl)C3)cc1, the melting point was 108 °C. C[C@@H]1OCCN(c2cc(N3CCOCC3)nc(-n3c(CO)nc4ccccc43)n2)[C@@H]1C (relative stereo) gave a melting point of 125 to 128 °C. CCCC1=C(C(=O)OCC)C(c2cc(F)ccc2F)c2c[nH]nc2N1 (stereo not drawn) gave a melting point of 168 to 169 °C. With COC(=O)NN=Cc1cnc2ccccc2n1 the melting point was 242 to 244 °C. Molecule Cc1c(Cl)ccc2c3c([nH]c12)[C@@]1(CC(=O)O)CC[C@H]1CC3 (relative stereo) has a melting point of 189 to 190 °C. CSc1cccc(COCCCO)c1NC(=O)CC1c2ccccc2Oc2ccccc21 showed a melting point of 207 to 208 °C. Work on Cc1oc(-c2ccccc2)nc1COc1ccc(Cn2cc(CCC(=O)O)c(-c3ccccc3)n2)cc1 yielded a melting point of 179 to 180 °C. In the case of Cc1nc(N2CCN(Cc3ccc(OC(F)(F)F)cc3)C2=O)sc1C(=O)NCCc1cccnc1, the melting point is reported as 172 to 173 °C. For COC(=O)c1ccccc1OCNC(=O)CCCCCNC(=O)OC(C)(C)C, the melting point was 120 to 121 °C. In the case of CC(NC(=O)c1ccc(-c2ccccc2)cc1)C(=O)O (stereo not drawn), the melting point is reported as 160 °C. COc1ccc(CN2C(=O)C(c3cc4c(C)noc4cc3O)c3ccccc32)cc1 (stereo not drawn) showed a melting point of 195 to 197 °C. In the case of Cc1cccc(C(=O)O)c1N(C)S(=O)(=O)c1ccc(OCCCNC(=O)c2cc3ccccc3o2)cc1, the melting point is reported as 184 to 186 °C. With CN(C)c1ccc(S(=O)(=O)n2c(CCCC(=O)O)cc3nc(Cl)ccc32)cc1 the melting point was 76 °C. Molecule CC(C)(C)c1ccc(C(=O)Nc2cn3nc(NCCO)ccc3n2)cc1 has a melting point of 231 to 233 °C. With Cc1cc2c(cc1Oc1ccc(C(=O)NNc3ccc4c(C)nn(C)c4n3)o1)C(C)(C)CC(C)C2(C)C (stereo not drawn) the melting point was 169 to 170 °C. For CCOC(=O)C(Oc1ccc(Cl)cc1)c1ccc(Oc2ccc(Cl)cc2)cc1 (stereo not drawn), the melting point was 52.5 to 54 °C. For CC(=O)Oc1ccc(-c2ccc(O)cc2)cc1, the melting point was 204 to 207 °C. For CCc1cccc(C)c1COc1cc(C(=O)N(C)C)cc2c1nc(C)n2C, the melting point was 161 to 162 °C. For CC(=O)OCC(=O)C1(OC(C)=O)C(C)CC2C3CC(C)C4=CC(=O)CCC4(C)C3(F)C(O)CC21C (stereo not drawn), the melting point was 194 to 195 °C. Work on Cc1c(CN2CCc3c(c4cccc(F)c4n3C)C2=O)ncn1S(=O)(=O)N(C)C yielded a melting point of 162 to 166 °C. With O=C(O)c1cnn(O)c1 the melting point was 230 °C. With CON=C(C(=O)OC)c1cc(C)c(C)cc1COc1ccccc1C the melting point was 82 to 84 °C. N=C(N)NC(=O)C[C@H]1c2cc(C(F)(F)F)ccc2C(=O)N1CC(F)(F)F showed a melting point of 122 °C. CCCOc1ccccc1N1CCN(CCCCn2c(=O)[nH]c(=O)c3ccccc32)CC1 gave a melting point of 68 °C. O=C1c2ccccc2CCn2cnnc21 gave a melting point of 187 °C. Cc1nc2cc3c(cc2o1)C1(CO3)C(=O)Nc2ccccc21 (stereo not drawn) gave a melting point of 242 to 244 °C. O=C(NC(c1ccccc1)c1cc2ccncc2[nH]1)c1ccncc1 (stereo not drawn) gave a melting point of 182 to 192 °C. O=C(Nc1cc(C(F)(F)F)ccc1Cl)Nc1cc(Cl)cc(Br)c1O gave a melting point of 261 to 274 °C. With CCOCCNC(=O)c1cc2c(nc(C)n2C)c2c1CCC1(Cc3ccccc3C1)N2 the melting point was 180 to 181 °C. N#CC=C1CCN(c2ccc(N3C[C@H](CNC(=O)CBr)OC3=O)cc2F)CC1 gave a melting point of 160 to 162 °C.
